Experimental findings from patent US20100130598A1, “METHODS FOR INDUCING PROGRAMMED CELL DEATH” (Novogen Research Pty Ltd., priority 2008, published 2010) are described below.

One series concerns EOC tumors. The series is described as follows: Mouse EOC xenograft study. It counts as in vivo. To be noted: 3 weeks; for T/C values (maximal tumor inhibition, treated/control): intra-peritoneal, Compound 1 100 mg/kg every day, Carboplatin 40 mg/kg q×7d, Paclitaxel 10 mg/kg q×3d. Here is the method: Mouse xenograft studies. The in vivo study as approved by the Yale University Institutional Animal Care & Use Committee. Cells (1×10^6 cells) were resuspended in 200 μ1 total volume of 50% RPMI and 50% BD Matrigel Matrix (BD Biosciences, Bedford, Mass.) and injected subcutaneously into the right flank of NCR nude mice. Intra-peritoneal therapy commenced eight days post-inoculation as follows: Paclitaxel 10 mg/kg q×3d, Carboplatin 40 mg/kg q×7d, and Compound 1 in 20% HPBCD, 100 mg/kg every day. Control groups received 20% HPBCD in PBS. Mice were treated and observed for 3 weeks. Tumor size was determined by caliper measurements and anti-tumor activity was analyzed with respect to maximal tumor inhibition (treated/control, T/C) as described previously (Kamsteeg et al, 2003).

The subject of another series is caspases-3/7, -8, and -9. The series is described as follows: Caspase-3/7, -8, and -9 activity assay (Caspase-Glo) on cell lysates. In kind it is cell-based, human. The conditions noted are these: EOC cells, 24 h; increasing concentrations of Compound 1 or 2 μM Paclitaxel. From the text:
Protein preparation and cellular fractionation. After drug treatment, protein was extracted and measured as previously described (Alvero et al, 2006). For separation of the cytoplasmic and mitochondrial fractions, cell pellets were processed using the ApoAlert™ Cell Fractionation Kit (BD Biosciences, San Jose, Calif.) according to the manufacturer's instructions. For separation of the cytoplasmic and nuclear fractions, pellets were processed using NE-PER Nuclear and Cytoplasmic Extraction (Pierce Biotechnology, Inc., Rockford, Ill.). Caspase-3/7, -8, and -9 activity assay. Ten μg of protein in a 50 μl total volume was mixed with 50 μl of equilibrated Caspase-Glo^10 3/7, 8, or 9 reagents (Promega). After incubating at room temperature for 1 h, luminescence was measured using TD 20/20 Luminometer (Turner Designs, Sunnyvale, Calif.). Blank values were subtracted and fold-increase in activity was determined in relation to the control non-treatment.

Another series relates to MIAPaCa-2. Description: MIAPaCa-2 pancreatic cancer xenograft. To be noted: MIAPaCa-2 model; Compound 10 100 mg/kg oral qd×12, gemcitabine 20 mg/kg q3d×4, alone or combined. In kind it is in vivo, Balb/c nude mice. Here is the method: For xenograft studies, five week old male Balb/c nude mice were maintained on an isoflavone-free diet to remove background isoflavone levels contributed by standard feed. On the day of inoculation a suspension of MIAPaCa2 or HPAC cells was prepared in DMEM (-FBS), chilled on ice and then an equal volume of matrigel (BD) was added. Mice were inoculated subcutaneously with 3×10^6 MIAPaCa2 or HPAC cells bilaterally (midway between the axillary and inguinal region) along the dorsal surface, ensuring that cells to be injected were growing at mid-end log phase. Tumor growth was monitored over 10-15 days. Compound 10 was given orally by gavage in 1% carboxy methyl cellulose (CMC) as a vehicle. Gemcitabine was injected intraperiponeally in PBS. In combination groups animals were first dosed with Compound 10 and then dosed with gemcitabine using the respective administration schedule, dosage and route of delivery stated.

A further series deals with MIAPaCa-2 cells. The series is described as follows: Apoptosis/necrosis by FACS (Annexin-V-FITC/PI), MIAPaCa-2. To be noted: MIAPaCa-2, 10 μM zVAD-fmk 1 h pre-treatment; 10 μM Compound 10 or 50 ng/mL TRAIL. It counts as cell-based, human. How it is done: Cells. Human pancreatic cell lines HPAC, MIAPaCa-2 and PANC-1 were obtained from the ATCC. (Manassas, Va.). The cells were maintained in DMEM media with Gln and high glucose (Mediatech, Manassas, Va.) with 10% fetal bovine serum (FBS, HyClone, Logan, Utah) and pencillin/streptomycin.
FACS Analysis. Apoptosis was measured by FACS analysis using Annexin-V-FITC and propidium iodide (PI) (Biovision, Mountain View, Calif.) as probes (Ahn et al., 2003). Mitochondrial membrane potential was measured by FACS analysis using JC-1 (Biovision) as a probe (Ahn et al., 2003). Cell cycle was analyzed on ethanol-fixed, RNaseA-treated cells staining with PI. In each spectrum, 10,000 gated events were recorded and analyzed with a FACSCalibur (BD Biosciences. San Jose, Calif.). All experiments were done in triplicate, error bars represent one standard deviation. Caspase inhibitor I (zVAD-fmk) was obtained from Calbiochem.
(In general: A flow cytometer gives signals particle by particle.)

For the molecule `N.N.O=C([O-])C1(C(=O)[O-])CCC1.[Pt+2]` [carboplatin, reference compound], the “T/C values (maximal tumor inhibition, treated/control)” value in the series with EOC tumors is listed as 58%. Also, in the series with EOC tumors (xenograft mice), the toxic side effects entry was “severe weight loss and cachexia”.

Turning to `CC(=O)O[C@H]1C(=O)[C@@]2(C)[C@H]([C@H](OC(=O)c3ccccc3)[C@]3(O)C[C@H](OC(=O)[C@H](O)[C@@H](NC(=O)c4ccccc4)c4ccccc4)C(C)=C1C3(C)C)[C@]1(OC(C)=O)CO[C@@H]1C[C@@H]2O` [Paclitaxel, reference compound], the “caspase-3/7, -8, and -9 activities” value in the series on caspases-3/7, -8, and -9 was “increase”. Besides, the “T/C values (maximal tumor inhibition, treated/control)” value with EOC tumors came out at 58%.

Consider `Nc1ccn([C@@H]2O[C@H](CO)[C@@H](O)C2(F)F)c(=O)n1` [gemcitabine, reference compound], for which the “% T/C (mean terminal tumor burden)” value in the series on MIAPaCa-2 is on record as 79%.

B1: TRAIL: TRAIL (Alexis), 50 ng/mL, positive caspase-dependent control (protein, UniProt P50591 1-281, looked up)
Tumor necrosis factor ligand …: MAMMEVQGGPSLGQTCVLIVIFTVLLQSLCVAVTYVYFTNELKQMQDKYSKSGIACFLKEDDSYWDPNDEESMNSPCWQVKWQLRQLVRKMILRTSEETISTVQEKQQNISPLVRERGPQRVAAHITGTRGRSNTLSSPNSKNEKALGRKINSWESSRSGHSFLSNLHLRNGELVIHEKGFYYIYSQTYFRFQEEIKENTKNDKQMVQYIYKYTSYPDPILLMKSARNSCWSKDAEYGLYSIYQGGIFELKENDRIFVSVTNEHLIDMDHEASFFGAFLVG
As for B1, in the series on MIAPaCa-2 cells, the “effect of zVAD-fmk pre-treatment on induced apoptosis” value is listed as “inhibition”.
